Patent publication US10760110B2, “Antibiotic testing and screening system” (priority 2017, dated 2020)
≈ marks a conversion by molar mass, not a printed value. Where two headings read alike, the source gives them in different places.

Tests used:
Conditions in all cases: Klebsiella pneumoniae
[1] = tested on: K. pneumoniae NVT1001 and its ΔompK35/36 and/or ΔramR mutants; assay: Etest MIC, OmpK35/36 loss and AcrAB-TolC overexpression (ΔramR) strains (Table 6); assay type: cell-based, Klebsiella pneumoniae
Outline: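 Etest strips per kit instructions; off-scale intermediate readings rounded upward to the nearest two-fold concentration. Broth microdilution (CLSI) for ceftazidime, cefotaxime only. Breakpoints: CLSI 2017 generally, CLSI 2015 for cephalothin, EUCAST 2017 for moxifloxacin.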

[2] = tested on: K. pneumoniae NVT1001 strains with carbapenemase plasmids; assay: Etest MIC of β-lactams, OmpK35/36 loss, ΔramR and/or carbapenemase (Table 9); assay type: cell-based, Klebsiella pneumoniae
Procedure: DNA fragments of the resistance genes along with their flanking regions were amplified from clinical plasmids via PCR with specific primer pairs. The resulting PCR fragments were digested and then cloned into the plasmid pACYC177 or pACYC184. The resulting plasmids were then transformed into K. pneumoniae strain NVT1001 via electroporation. The recombinant bacteria were plated onto LB agar plates containing kanamycin (50 mg/L) or chloramphenicol (50 mg/L), and the presence of the cloned gene was confirmed via PCR and DNA sequencing.
The MICs of antibiotics were determined using the Etest (Biodisk AB, Sweden) according to the manufacturer's instructions. The MICs from the Etest, which fall between standard two-fold dilutions, were rounded up to the next highest two-fold value. The MICs of ceftazidime and cefotaxime against K. pneumoniae NVT1001 harbouring the pACYC177 plasmid with blaOXA-48 were further determined using a broth microdilution test according to the recommendations of the CLSI,^25 and the results were interpreted according to the breakpoints established by the CLSI in 2017.^25 Meanwhile, due to the lack of CLSI breakpoints in 2016 and 2017, the results for cephalothin were interpreted according to the breakpoints established by the CLSI in 2015,^26 and the results for moxifloxacin were interpreted according to the breakpoints established by the EUCAST in 2017.^27

[3] = tested on: K. pneumoniae NVT1001 ΔramRΔompK35/36 mutant and its revertants; assay: Etest MIC, ΔramRΔompK35/36 mutant and its revertants (Table 7); assay type: cell-based

Structure (SMILES): C[C@@H](O)[C@H]1C(=O)N2C(C(=O)O)=C(S[C@@H]3CN[C@H](CNS(N)(=O)=O)C3)[C@H](C)[C@H]12 [Doripenem]
- MIC ([1]; WT, NVT1001, read-out: MIC): 0.06 µg/mL (≈ 0.143 µM)
- MIC ([1]; Δ35, ΔompK35 mutant): 0.06 µg/mL (≈ 0.143 µM)
- MIC ([1]; Δ35/36, ΔompK35/36 mutant): 0.125 µg/mL (≈ 0.297 µM)
- MIC ([1]; Δ36, ΔompK36 mutant): 0.06 µg/mL (≈ 0.143 µM)
- MIC ([1]; ΔramR mutant): 0.03 µg/mL (≈ 0.0713 µM)
- MIC ([1]; ΔramRΔ35, ΔramRΔompK35 mutant): 0.03 µg/mL (≈ 0.0713 µM)
- MIC ([1]; ΔramRΔ35/36, ΔramRΔompK35/36 mutant): 0.5 µg/mL (≈ 1.19 µM)
- MIC ([1]; ΔramRΔ36, ΔramRΔompK36 mutant): 0.25 µg/mL (≈ 0.595 µM)
- MIC ([2]; IMP-8 on pACYC177, WT (NVT1001), read-out: MIC): 1 µg/mL
- MIC ([2]; IMP-8 on pACYC177, Δ35 (ΔompK35 mutant)): 2 µg/mL
- MIC ([2]; IMP-8 on pACYC177, Δ35/36 (ΔompK35/36 mutant)): > 32 µg/mL
- MIC ([2]; IMP-8 on pACYC177, Δ36 (ΔompK36 mutant)): 2 µg/mL
- MIC ([2]; IMP-8 on pACYC177, ΔramR mutant): 1 µg/mL
- MIC ([2]; IMP-8 on pACYC177, ΔramRΔ35 (ΔramRΔompK35 mutant)): 2 µg/mL
- MIC ([2]; IMP-8 on pACYC177, ΔramRΔ35/36 (ΔramRΔompK35/36 mutant)): 32 µg/mL
- MIC ([2]; IMP-8 on pACYC177, ΔramRΔ36 (ΔramRΔompK36 mutant)): 32 µg/mL
- MIC ([2]; KPC-2 on pACYC177, WT (NVT1001), read-out: MIC): 16 µg/mL
- MIC ([2]; KPC-2 on pACYC177, Δ35 (ΔompK35 mutant)): 32 µg/mL
- MIC ([2]; KPC-2 on pACYC177, Δ35/36 (ΔompK35/36 mutant)): > 32 µg/mL
- MIC ([2]; KPC-2 on pACYC177, Δ36 (ΔompK36 mutant)): > 32 µg/mL
- MIC ([2]; KPC-2 on pACYC177, ΔramR mutant): 16 µg/mL
- MIC ([2]; KPC-2 on pACYC177, ΔramRΔ35 (ΔramRΔompK35 mutant)): 32 µg/mL
- MIC ([2]; KPC-2 on pACYC177, ΔramRΔ35/36 (ΔramRΔompK35/36 mutant)): > 32 µg/mL
- MIC ([2]; KPC-2 on pACYC177, ΔramRΔ36 (ΔramRΔompK36 mutant)): > 32 µg/mL
- MIC ([2]; KPC-3 on pACYC177, WT (NVT1001), read-out: MIC): 8 µg/mL
- MIC ([2]; KPC-3 on pACYC177, Δ35 (ΔompK35 mutant)): 32 µg/mL
- MIC ([2]; KPC-3 on pACYC177, Δ35/36 (ΔompK35/36 mutant)): > 32 µg/mL
- MIC ([2]; KPC-3 on pACYC177, Δ36 (ΔompK36 mutant)): > 32 µg/mL
- MIC ([2]; KPC-3 on pACYC177, ΔramR mutant): 16 µg/mL
- MIC ([2]; KPC-3 on pACYC177, ΔramRΔ35 (ΔramRΔompK35 mutant)): 32 µg/mL
- MIC ([2]; KPC-3 on pACYC177, ΔramRΔ35/36 (ΔramRΔompK35/36 mutant)): > 32 µg/mL
- MIC ([2]; KPC-3 on pACYC177, ΔramRΔ36 (ΔramRΔompK36 mutant)): > 32 µg/mL
- MIC ([2]; NDM-1 on pACYC177, WT (NVT1001), read-out: MIC): 16 µg/mL
- MIC ([2]; NDM-1 on pACYC177, Δ35 (ΔompK35 mutant)): 32 µg/mL
- MIC ([2]; NDM-1 on pACYC177, Δ35/36 (ΔompK35/36 mutant)): > 32 µg/mL
- MIC ([2]; NDM-1 on pACYC177, Δ36 (ΔompK36 mutant)): > 32 µg/mL
- MIC ([2]; NDM-1 on pACYC177, ΔramR mutant): 32 µg/mL
- MIC ([2]; NDM-1 on pACYC177, ΔramRΔ35 (ΔramRΔompK35 mutant)): 32 µg/mL
- MIC ([2]; NDM-1 on pACYC177, ΔramRΔ35/36 (ΔramRΔompK35/36 mutant)): > 32 µg/mL
- MIC ([2]; NDM-1 on pACYC177, ΔramRΔ36 (ΔramRΔompK36 mutant)): > 32 µg/mL
- MIC ([2]; OXA-48 on pACYC177, WT (NVT1001), read-out: MIC): 2 µg/mL
- MIC ([2]; OXA-48 on pACYC177, Δ35 (ΔompK35 mutant)): 2 µg/mL
- MIC ([2]; OXA-48 on pACYC177, Δ35/36 (ΔompK35/36 mutant)): > 32 µg/mL
- MIC ([2]; OXA-48 on pACYC177, Δ36 (ΔompK36 mutant)): 8 µg/mL
- MIC ([2]; OXA-48 on pACYC177, ΔramR mutant): 2 µg/mL
- MIC ([2]; OXA-48 on pACYC177, ΔramRΔ35 (ΔramRΔompK35 mutant)): 1 µg/mL
- MIC ([2]; OXA-48 on pACYC177, ΔramRΔ35/36 (ΔramRΔompK35/36 mutant)): > 32 µg/mL
- MIC ([2]; OXA-48 on pACYC177, ΔramRΔ36 (ΔramRΔompK36 mutant)): > 32 µg/mL
- MIC ([2]; VIM-1 on pACYC177, WT (NVT1001), read-out: MIC): 16 µg/mL
- MIC ([2]; VIM-1 on pACYC177, Δ35 (ΔompK35 mutant)): 32 µg/mL
- MIC ([2]; VIM-1 on pACYC177, Δ35/36 (ΔompK35/36 mutant)): > 32 µg/mL
- MIC ([2]; VIM-1 on pACYC177, Δ36 (ΔompK36 mutant)): > 32 µg/mL
- MIC ([2]; VIM-1 on pACYC177, ΔramR mutant): 32 µg/mL
- MIC ([2]; VIM-1 on pACYC177, ΔramRΔ35 (ΔramRΔompK35 mutant)): 32 µg/mL
- MIC ([2]; VIM-1 on pACYC177, ΔramRΔ35/36 (ΔramRΔompK35/36 mutant)): > 32 µg/mL
- MIC ([2]; VIM-1 on pACYC177, ΔramRΔ36 (ΔramRΔompK36 mutant)): > 32 µg/mL
- MIC ([2]; no supplemental plasmid, WT (NVT1001), read-out: MIC): 0.06 µg/mL
- MIC ([2]; no supplemental plasmid, Δ35 (ΔompK35 mutant)): 0.06 µg/mL
- MIC ([2]; no supplemental plasmid, Δ35/36 (ΔompK35/36 mutant)): 0.125 µg/mL
- MIC ([2]; no supplemental plasmid, Δ36 (ΔompK36 mutant)): 0.06 µg/mL
- MIC ([2]; no supplemental plasmid, ΔramR mutant): 0.03 µg/mL
- MIC ([2]; no supplemental plasmid, ΔramRΔ35 (ΔramRΔompK35 mutant)): 0.03 µg/mL
- MIC ([2]; no supplemental plasmid, ΔramRΔ35/36 (ΔramRΔompK35/36 mutant)): 0.5 µg/mL
- MIC ([2]; no supplemental plasmid, ΔramRΔ36 (ΔramRΔompK36 mutant)): 0.25 µg/mL
- MIC ([3]; ΔramRΔompK35/36::ompK35/36 revertant): 0.06 µg/mL
- MIC ([3]; ΔramRΔompK35/36::ompK35 revertant): 0.25 µg/mL
- MIC ([3]; ΔramRΔompK35/36::ompK36 revertant): 0.06 µg/mL
- MIC ([3]; ΔramRΔompK35/36::ramR revertant): 0.25 µg/mL
- MIC ([3]; ΔramRΔompK35/36::ramR::ompK35/36 revertant): 0.06 µg/mL
- MIC ([3]; ΔramRΔompK35/36::ramR::ompK35 revertant): 0.125 µg/mL
- MIC ([3]; ΔramRΔompK35/36::ramR::ompK36 revertant): 0.125 µg/mL
- MIC ([3]; ΔramRΔompK35/36 mutant): 0.5 µg/mL
